Consider 21 compounds from article PMC5412877, “Discovery of a PCAF Bromodomain Chemical Probe” (Angewandte Chemie (International Ed. in English), 2016).

The first experiment has as its target T1, PCAF Brd (Homo sapiens, UniProt Q92831).
T1 construct: Human bromodomains were cloned, expressed and purified as previously described; made in house
T1 sequence (Q92831 723-827 limits assumed): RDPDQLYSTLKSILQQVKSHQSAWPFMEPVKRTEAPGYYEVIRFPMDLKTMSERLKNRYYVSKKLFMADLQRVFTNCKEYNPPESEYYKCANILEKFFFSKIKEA
The experiment can be described thus: Isothermal titration calorimetry (ITC), PCAF Brd. It is filed as binding. As to conditions: Supplemental Table 3; compound concentration 30 μM, protein concentration 280-320 μM; read-out: PCAF KD (μM) (ITC). As to the method:
Isothermal Titration Calorimetry (ITC)
Experiments were carried out on a Nano-ITC Standard Volume Instrument (TA Instruments). All experiments were carried out at 25 °C in 20 mM HEPES pH 7.5, 150 mM NaCl, 0.5 mM TCEP and 5% glycerol. Protein solutions were buffer exchanged by gel filtration. The titrations were conducted using an initial injection of 2 μL followed by 32 injections of 8 μL. Background dilution heat was substracted from each experiment. Thermodynamic parameters were calculated using ΔG = ΔH-T ΔS = -RTlnKB , where KD = 1/KB. ΔG, ΔH and ΔS are changes in free energy, enathalpy and entropy resepectively. Independent single site binding models were employed in data analysis.
Supplemental Figure 3. ITC trace of D-Moses and PCAF Brd […]
For the compound `CCC(CN(C)C)Nc1nn2c(C(F)(F)F)nnc2c2ccccc12` (centres unmarked) [Compound 88], the Kd was over 30 µM.

Turning to `CN(C)[C@H]1CCCC[C@@H]1Nc1nn2c(C(F)(F)F)nnc2c2ccccc12` [Compound 83], the Kd is over 30 µM.

`Cc1nnc2c3ccccc3c(NC(C)c3ccccn3)nn12` (centres unmarked) [Compound 71]: the Kd is 2.3 µM.

For `Cc1nnc2c3ccccc3c(N3CCN(CCN4CCCCC4)CC3)nn12` [Compound 62], the Kd is over 30 µM.

`Cc1nnc2c3ccccc3c(N[C@H]3CCCN(Cc4ccccc4)C3)nn12` [Compound 56]: the Kd is over 30 µM.

Take `CCN1CCCC1CNc1nn2c(C(F)(F)F)nnc2c2ccccc12` (centres unmarked) [Compound 91]: the Kd is over 30 µM.

Regarding `Cc1nnc2c3ccccc3c(N[C@H]3CCC[C@@H]3N(C)C)nn12` [Compound 76], the Kd was found to be 0.168 µM.

For `Cc1nnc2c3ccccc3c(N[C@H]3CCCC[C@@H]3N(C)C)nn12` [Compound 66], the Kd was over 30 µM.

With `CCC(CN(C)C)Nc1nn2c(C)nnc2c2ccccc12` (centres unmarked) [Compound 12], the Kd came to 1.76 µM.

For `CN(C)CCNc1nn2c(C(F)(F)F)nnc2c2ccccc12` [Compound 87], the Kd is over 30 µM.

Take `FC(F)(F)c1nnc2c3ccccc3c(NCc3ccccc3)nn12` [Compound 85]: the Kd is over 30 µM.

`Cc1nnc2c3ccccc3c(NCC3CCCN3C)nn12` (centres unmarked) [Compound 97]: the Kd came to 18.2 µM.

`Cc1nnc2c3ccccc3c(NC(C)c3cnccn3)nn12` (centres unmarked) [Compound 72]: the Kd was over 30 µM.

Turning to `CN(C)[C@H]1CCC[C@@H]1Nc1nn2c(C(F)(F)F)nnc2c2ccccc12` [Compound 84], the Kd was over 30 µM.

In the case of `Cc1nnc2c3ccccc3c(NC(C)CN(C)C)nn12` (centres unmarked) [Compound 11], the Kd came out at 0.298 µM.

Consider `CCC(CNc1nn2c(C(F)(F)F)nnc2c2ccccc12)N(C)C` (centres unmarked) [Compound 89], for which the Kd is over 30 µM.

Consider `CC(C)CC(CN(C)C)Nc1nn2c(C(F)(F)F)nnc2c2ccccc12` (centres unmarked) [Compound 86], for which the Kd is over 30 µM.

For the compound `Cc1nnc2c3ccccc3c(NCC3CCCCN3C)nn12` (centres unmarked) [Compound 60], the Kd was 1.13 µM.

Turning to `Cc1nnc2c3ccccc3c(N[C@@H]3CCC[C@H]3N(C)C)nn12` [Compound 67], the Kd came out at 0.321 µM.

Regarding `Cc1nnc2c3ccccc3c(N3CCN4CCCCC4C3)nn12` (centres unmarked) [Compound 73], the Kd is over 30 µM.

Consider `Cc1nnc2c3ccccc3c(N3CCC(N(C)C)C3)nn12` (centres unmarked) [Compound 68], for which the Kd is over 30 µM.

Staying with this experiment, now noted: Table 1; read-out: K D [μM] (ITC) PCAF Brd.
Take `CCC(CN(C)C)Nc1nn2c(C)nnc2c2ccccc12` (centres unmarked) [Compound 12]: the Kd was determined as 1.8 ± 0.23 µM.

As for `Cc1nnc2c3ccccc3c(NC(C)CN(C)C)nn12` (centres unmarked) [Compound 11], the Kd was found to be 0.3 ± 0.039 µM.

The target in another experiment is T1, PCAF Brd. The experiment can be described thus: Differential scanning fluorimetry (DSF), PCAF Brd. It is filed as binding. The settings on record: compound concentration 10 μM. The protocol: (§1) Protein Expression and Purification
(§2) Human bromodomains were cloned, expressed and purified as previously described.[1]
(§3) Differential Scanning Fluorimetry (DSF)
(§4) Thermal melting points were recorded using an Mx3005p Real Time PCR Machine (Stratagene).
(§5) Subject proteins were buffered in 10 mM HEPES at pH 7.5, 500 mM NaCl and assayed in a 96-well […]
(§6) plate at a final concentration of 2 μM in 20 μL volume. Compounds were then added to a final […]
(§7) concentration of 10 μM. SPYRO Orange (Molecular Probes) was used as a fluorescent probe at a […]
(§8) dilution of 1:1000. Excitation and emission filters for the SPYRO-Orange dye were set to 465 nm and […]
(§9) 590 nm, respectively. The temperature was raised with a step of 3 °C/min from 25 °C to 96 °C and […]
(§10) fluorescence readings were taken at each interval. Data was analysed as previously described.[2]
(§11) Bromodomain affinity selectivity panel of (S)-11
(§12) Supplemental Figure 1. DSF Selectivity panel of (S)-11 against 48 human Bromodomains. […]
(§13) ┼Mean ΔTm ± SEM (number of measurements= 2). Compound concentration: 10 μM […]
(§14) (1 picture or pasted object on this page, not shown here)
With `CCC(CN(C)C)Nc1nn2c(C(F)(F)F)nnc2c2ccccc12` (centres unmarked) [Compound 88], the “ΔT m [°C] PCAF (DSF)” value came to 0.4 °C.

As for `CN(C)[C@H]1CCCC[C@@H]1Nc1nn2c(C(F)(F)F)nnc2c2ccccc12` [Compound 83], the “ΔT m [°C] PCAF (DSF)” value came out at 0.8 °C.

As for `Cc1nnc2c3ccccc3c(N3CCN(CCN4CCCCC4)CC3)nn12` [Compound 62], the “ΔT m [°C] PCAF (DSF)” value amounted to 0.2 °C.

Take `Cc1nnc2c3ccccc3c(N[C@H]3CCCN(Cc4ccccc4)C3)nn12` [Compound 56]: the “ΔT m [°C] PCAF (DSF)” value was found to be 0.6 °C.

In the case of `CCN1CCCC1CNc1nn2c(C(F)(F)F)nnc2c2ccccc12` (centres unmarked) [Compound 91], the “ΔT m [°C] PCAF (DSF)” value was 0.1 °C.

In the case of `Cc1nnc2c3ccccc3c(N[C@H]3CCC[C@@H]3N(C)C)nn12` [Compound 76], the “ΔT m [°C] PCAF (DSF)” value came out at 7.3 °C.

For the compound `Cc1nnc2c3ccccc3c(N[C@H]3CCCC[C@@H]3N(C)C)nn12` [Compound 66], the “ΔT m [°C] PCAF (DSF)” value turned out to be 0.6 °C.

Regarding `CCC(CN(C)C)Nc1nn2c(C)nnc2c2ccccc12` (centres unmarked) [Compound 12], the “ΔT m [°C] PCAF (DSF)” value was determined as 3.3 °C.

In the case of `FC(F)(F)c1nnc2c3ccccc3c(NCc3ccccc3)nn12` [Compound 85], the “ΔT m [°C] PCAF (DSF)” value worked out at 3.7 °C.

Take `Cc1nnc2c3ccccc3c(NCC3CCCN3C)nn12` (centres unmarked) [Compound 97]: the “ΔT m [°C] PCAF (DSF)” value came to 2.8 °C.

For `CN(C)[C@H]1CCC[C@@H]1Nc1nn2c(C(F)(F)F)nnc2c2ccccc12` [Compound 84], the “ΔT m [°C] PCAF (DSF)” value was found to be 0.7 °C.

`Cc1nnc2c3ccccc3c(NC(C)CN(C)C)nn12` (centres unmarked) [Compound 11]: the “ΔT m [°C] PCAF (DSF)” value came out at 5.6 °C.

`CCC(CNc1nn2c(C(F)(F)F)nnc2c2ccccc12)N(C)C` (centres unmarked) [Compound 89]: the “ΔT m [°C] PCAF (DSF)” value was 0.4 °C.

`CC(C)CC(CN(C)C)Nc1nn2c(C(F)(F)F)nnc2c2ccccc12` (centres unmarked) [Compound 86]: the “ΔT m [°C] PCAF (DSF)” value was 0.02 °C.

On to `Cc1nnc2c3ccccc3c(NCC3CCCCN3C)nn12` (centres unmarked) [Compound 60], for which the “ΔT m [°C] PCAF (DSF)” value came to 2.9 °C.

For the compound `Cc1nnc2c3ccccc3c(N[C@@H]3CCC[C@H]3N(C)C)nn12` [Compound 67], the “ΔT m [°C] PCAF (DSF)” value worked out at 0.7 °C.

For the compound `Cc1nnc2c3ccccc3c(N3CCN4CCCCC4C3)nn12` (centres unmarked) [Compound 73], the “ΔT m [°C] PCAF (DSF)” value is 0.5 °C.

For the compound `Cc1nnc2c3ccccc3c(N3CCC(N(C)C)C3)nn12` (centres unmarked) [Compound 68], the “ΔT m [°C] PCAF (DSF)” value was 0.8 °C.

The next experiment concerns the target T2, GCN5L2 (Homo sapiens, UniProt Q92830).
T2 construct: made in house
T2 sequence (Q92830 728-832 limits assumed): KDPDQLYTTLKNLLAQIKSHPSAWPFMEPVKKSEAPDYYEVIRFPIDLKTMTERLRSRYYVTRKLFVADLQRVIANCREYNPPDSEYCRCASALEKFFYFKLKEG
The experiment can be described thus: Differential scanning fluorimetry (DSF), GCN5 (GCN5L2) Brd. Format: binding. The settings on record: compound 10 μM. As to the method: as §1, §2, §3, §4, §5, §6, §7, §8, §9, §10, §11, §12, §13, §14
(In DSF a fluorescence change marks the thermal transition of the protein.)
As to `CCC(CN(C)C)Nc1nn2c(C(F)(F)F)nnc2c2ccccc12` (centres unmarked) [Compound 88], the “GCN5L2 ΔTm (°C) (DSF)” value was determined as 0.1 °C.

As for `Cc1nnc2c3ccccc3c(N[C@H]3CCCC[C@@H]3N(C)C)nn12` [Compound 66], the “GCN5L2 ΔTm (°C) (DSF)” value turned out to be 0.1 °C.

With `Cc1nnc2c3ccccc3c(NCC3CCCN3C)nn12` (centres unmarked) [Compound 97], the “GCN5L2 ΔTm (°C) (DSF)” value was found to be 0.9 °C.

In the case of `CCC(CNc1nn2c(C(F)(F)F)nnc2c2ccccc12)N(C)C` (centres unmarked) [Compound 89], the “GCN5L2 ΔTm (°C) (DSF)” value came out at 0.2 °C.

As for `CC(C)CC(CN(C)C)Nc1nn2c(C(F)(F)F)nnc2c2ccccc12` (centres unmarked) [Compound 86], the “GCN5L2 ΔTm (°C) (DSF)” value was found to be 0.2 °C.

As for `Cc1nnc2c3ccccc3c(N3CCN4CCCCC4C3)nn12` (centres unmarked) [Compound 73], the “GCN5L2 ΔTm (°C) (DSF)” value was found to be 0.2 °C.

Turning to `Cc1nnc2c3ccccc3c(N3CCC(N(C)C)C3)nn12` (centres unmarked) [Compound 68], the “GCN5L2 ΔTm (°C) (DSF)” value turned out to be 0.1 °C.

Staying with this experiment, now noted: compound 10 μM; read-out: GCN5L2 ΔTm (°C) (DSF).
Broadly, the ΔTm is the change in melting temperature against a reference sample. Regarding `CN(C)[C@H]1CCCC[C@@H]1Nc1nn2c(C(F)(F)F)nnc2c2ccccc12` [Compound 83], the ΔTm at 10 µM came to 0 °C.

`Cc1nnc2c3ccccc3c(N3CCN(CCN4CCCCC4)CC3)nn12` [Compound 62]: the shift in melting temperature (ΔTm) at 10 µM stood at 0.3 °C.

For `Cc1nnc2c3ccccc3c(N[C@H]3CCCN(Cc4ccccc4)C3)nn12` [Compound 56], the thermal shift (ΔTm) at 10 µM is 0.1 °C.

Consider `CCN1CCCC1CNc1nn2c(C(F)(F)F)nnc2c2ccccc12` (centres unmarked) [Compound 91], for which the ΔTm at 10 µM turned out to be 0.1 °C.

Turning to `Cc1nnc2c3ccccc3c(N[C@H]3CCC[C@@H]3N(C)C)nn12` [Compound 76], the ΔTm at 10 µM was 2.4 °C.

Turning to `CCC(CN(C)C)Nc1nn2c(C)nnc2c2ccccc12` (centres unmarked) [Compound 12], the ΔTm at 10 µM stood at 1.1 °C.

In the case of `FC(F)(F)c1nnc2c3ccccc3c(NCc3ccccc3)nn12` [Compound 85], the ΔTm at 10 µM amounted to 0.9 °C.

On to `CN(C)[C@H]1CCC[C@@H]1Nc1nn2c(C(F)(F)F)nnc2c2ccccc12` [Compound 84], for which the ΔTm at 10 µM amounted to 0.2 °C.

`Cc1nnc2c3ccccc3c(NC(C)CN(C)C)nn12` (centres unmarked) [Compound 11]: the ΔTm at 10 µM was 2.5 °C.

`Cc1nnc2c3ccccc3c(NCC3CCCCN3C)nn12` (centres unmarked) [Compound 60]: the thermal shift (ΔTm) at 10 µM is 1.1 °C.

In the case of `Cc1nnc2c3ccccc3c(N[C@@H]3CCC[C@H]3N(C)C)nn12` [Compound 67], the ΔTm at 10 µM worked out at 0.3 °C.
